According to ChEMBL document CHEMBL1201862, “PubChem BioAssay data set” (2004):
Calls of active or inactive are those of the source.

Columns and labels:
[1] = biological target: T1, Mannose-6-phosphate isomerase (Homo sapiens, UniProt P34949); assay: inhibitors of human PMI, primary screen, biochemical, fluorescence intensity, coupled assay (AID 1209)
T1 sequence (P34949 whole entry): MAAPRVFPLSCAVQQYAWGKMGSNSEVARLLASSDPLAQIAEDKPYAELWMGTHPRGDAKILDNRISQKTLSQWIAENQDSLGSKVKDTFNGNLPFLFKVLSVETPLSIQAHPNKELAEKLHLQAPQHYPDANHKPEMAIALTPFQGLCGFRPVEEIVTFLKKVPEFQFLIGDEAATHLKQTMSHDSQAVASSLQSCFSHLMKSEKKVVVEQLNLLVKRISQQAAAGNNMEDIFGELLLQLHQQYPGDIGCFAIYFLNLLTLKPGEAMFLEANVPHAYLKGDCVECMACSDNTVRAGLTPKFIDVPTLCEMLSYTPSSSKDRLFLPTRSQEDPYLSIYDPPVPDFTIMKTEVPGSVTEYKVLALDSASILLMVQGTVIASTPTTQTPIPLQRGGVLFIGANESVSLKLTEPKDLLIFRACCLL

[2] = biological target: T1, Mannose-6-phosphate isomerase; assay: human PMI inhibitors, high substrate, primary screen, biochemical, fluorescence intensity, high mannose 6-phosphate (AID 1220)
[3] = tested on: BJ; assay: cytotoxicity toward BJ-TERT fibroblasts, dose response, cell-based, RAS-independent, luminescence (AID 1933); format: functional; details: Homo sapiens
[4] = biological target: T2, Heat shock factor protein 1 (Mus musculus, UniProt P38532); assay: inhibition of MG132-induced HSE-luciferase signal, confirmation, cell-based, NIH3T3, luminescence, dose retest (AID 2382); format: functional;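 also: NIH3T3 fibroblasts with HSF1-driven luciferase reporter stressed by proteasome inhibitor MG132; luminescence from HSF1-driven luciferase expression after 8 hours of MG132 stress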
T2 sequence (P38532 whole entry): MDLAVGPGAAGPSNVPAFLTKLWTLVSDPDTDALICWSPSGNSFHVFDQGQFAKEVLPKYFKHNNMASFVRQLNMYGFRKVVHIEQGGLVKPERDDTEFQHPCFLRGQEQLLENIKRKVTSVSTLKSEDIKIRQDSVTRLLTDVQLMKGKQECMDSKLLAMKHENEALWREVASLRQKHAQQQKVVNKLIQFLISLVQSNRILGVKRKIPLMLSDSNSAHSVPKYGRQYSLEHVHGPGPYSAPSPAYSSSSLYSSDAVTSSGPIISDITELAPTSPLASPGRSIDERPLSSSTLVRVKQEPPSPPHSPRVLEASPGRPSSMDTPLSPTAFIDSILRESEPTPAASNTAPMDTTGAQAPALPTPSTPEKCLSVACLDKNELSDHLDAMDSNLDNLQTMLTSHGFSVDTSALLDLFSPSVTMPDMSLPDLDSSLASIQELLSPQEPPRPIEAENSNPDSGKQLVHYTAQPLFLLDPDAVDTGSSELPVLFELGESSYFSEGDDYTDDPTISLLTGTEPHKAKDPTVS

[5] = tested on: BJ; assay: cells; format: functional, cell-based; details: Homo sapiens
[6] = biological target: T3, Sphingosine 1-phosphate receptor 4 (Homo sapiens, UniProt O95977); assay: Fluorescence dose response cell-based high throughput screening assay for antagonists of the Sphingosine 1-Phosphate Receptor 4 (S1P4). [Related pubchem assays: 1524 (Confirmation in triplicates.), 1510 (Primary screen.)]; format: functional
T3 sequence (O95977 whole entry): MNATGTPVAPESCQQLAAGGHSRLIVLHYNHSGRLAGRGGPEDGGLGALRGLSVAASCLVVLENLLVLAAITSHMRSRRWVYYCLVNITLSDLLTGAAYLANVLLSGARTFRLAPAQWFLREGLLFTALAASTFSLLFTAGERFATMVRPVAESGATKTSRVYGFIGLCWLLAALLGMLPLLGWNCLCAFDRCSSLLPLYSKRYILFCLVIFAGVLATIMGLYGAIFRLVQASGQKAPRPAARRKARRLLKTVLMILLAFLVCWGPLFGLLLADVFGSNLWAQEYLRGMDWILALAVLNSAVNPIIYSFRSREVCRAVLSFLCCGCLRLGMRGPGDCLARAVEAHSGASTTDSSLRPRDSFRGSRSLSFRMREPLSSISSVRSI

[7] = tested on: BJ; assay: cytotoxicity toward BJ-TERT-LT-ST fibroblasts, dose response, cell-based, RAS-independent, luminescence (AID 1935); format: functional; details: Homo sapiens;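 also: BJ fibroblasts immortalized with TERT plus LT and ST oncogenes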
[8] = cytotoxicity toward DRD oncogenic fibroblasts, dose response, cell-based, non-viral oncogenic, luminescence (AID 1934); format: functional; details: Homo sapiens
[9] = biological target: Sphingosine 1-phosphate receptor 1 (Homo sapiens, UniProt P21453); format: functional;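 also: Tango beta-arrestin reporter U2OS cells stimulated with S1P near its EC80; inhibitor potency meaning antagonism of receptor activation by the natural agonist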
Sequence of Sphingosine 1-phosphate receptor 1 (P21453 whole entry): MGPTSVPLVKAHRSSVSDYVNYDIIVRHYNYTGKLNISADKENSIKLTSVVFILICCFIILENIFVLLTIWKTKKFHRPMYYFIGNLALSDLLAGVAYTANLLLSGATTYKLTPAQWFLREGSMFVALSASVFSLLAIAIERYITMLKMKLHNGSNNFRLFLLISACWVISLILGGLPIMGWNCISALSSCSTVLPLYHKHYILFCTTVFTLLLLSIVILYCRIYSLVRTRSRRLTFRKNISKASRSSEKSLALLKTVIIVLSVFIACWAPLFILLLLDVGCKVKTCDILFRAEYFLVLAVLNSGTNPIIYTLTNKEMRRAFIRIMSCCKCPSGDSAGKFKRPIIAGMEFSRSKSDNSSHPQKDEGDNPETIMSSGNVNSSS

[10] = cytotoxicity in HEK-293T cells, dose response, cytotoxicity control for TCR NF-kB inhibitor project, luminescence, T-cell screen hits (AID 489026); format: functional, cell-based;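 also: cells exposed to compound about 14 hours before the viability readout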
[11] = tested on: BJ; assay: cytotoxicity toward Ras-transformed BJeLR fibroblasts, dose response, cell-based, alamar blue fluorescence, cherrypicked samples (AID 2631); format: functional; details: Homo sapiens;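 also: confirmatory dose-response assay in RAS-dependent BJ fibroblasts engineered with TERT, LT and ST, with cytotoxicity read by fluorescence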
[12] = tested on: INS1; assay: beta cell apoptosis inhibitors, cytokine rescue, dose response, luminescence, retest (AID 449756); format: functional, cell-based; details: Rattus norvegicus;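 also: cell death triggered by IL-1 beta plus TNF-alpha plus IFN-gamma mixture; protective hits raise ATP signal compared with cytokine alone wells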
[13] = biological target: Protein-tyrosine kinase 2-beta (Homo sapiens, UniProt Q14289);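 also: potency of inhibitors of PYK2 kinase phosphorylation of poly-GT substrate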
Sequence of Protein-tyrosine kinase 2-beta (Q14289 whole entry): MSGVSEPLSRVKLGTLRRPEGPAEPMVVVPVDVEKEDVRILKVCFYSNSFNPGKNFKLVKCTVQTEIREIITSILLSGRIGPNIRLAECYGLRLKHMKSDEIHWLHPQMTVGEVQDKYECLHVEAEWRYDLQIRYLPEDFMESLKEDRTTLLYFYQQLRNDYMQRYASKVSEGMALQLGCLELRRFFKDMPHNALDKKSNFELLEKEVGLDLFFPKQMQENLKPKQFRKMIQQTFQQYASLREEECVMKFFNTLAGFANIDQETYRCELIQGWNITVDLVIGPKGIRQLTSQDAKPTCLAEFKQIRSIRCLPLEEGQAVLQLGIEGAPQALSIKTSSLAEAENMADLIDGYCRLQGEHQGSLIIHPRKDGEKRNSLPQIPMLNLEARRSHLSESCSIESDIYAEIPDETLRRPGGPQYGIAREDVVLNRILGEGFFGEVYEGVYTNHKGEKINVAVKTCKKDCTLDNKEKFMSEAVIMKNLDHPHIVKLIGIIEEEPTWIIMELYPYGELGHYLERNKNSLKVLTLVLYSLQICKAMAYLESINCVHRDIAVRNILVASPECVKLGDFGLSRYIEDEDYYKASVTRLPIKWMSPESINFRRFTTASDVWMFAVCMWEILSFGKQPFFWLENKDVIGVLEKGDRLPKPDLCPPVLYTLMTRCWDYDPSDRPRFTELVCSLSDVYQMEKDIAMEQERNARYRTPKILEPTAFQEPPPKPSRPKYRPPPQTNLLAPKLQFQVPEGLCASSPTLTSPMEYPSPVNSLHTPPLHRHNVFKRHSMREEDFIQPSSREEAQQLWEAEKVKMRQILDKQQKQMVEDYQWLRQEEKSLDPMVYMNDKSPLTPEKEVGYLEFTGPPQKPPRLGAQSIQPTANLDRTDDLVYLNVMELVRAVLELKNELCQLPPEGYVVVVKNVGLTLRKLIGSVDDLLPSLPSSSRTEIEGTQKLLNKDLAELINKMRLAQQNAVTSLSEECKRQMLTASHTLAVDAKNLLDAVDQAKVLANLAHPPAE

[14] = cells; format: functional
[15] = inhibitors of intracellular T. cruzi replication, confirmation, NIH3T3 host cells, beta-gal luminescence (AID 2044); format: functional, cell-based;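 also: intracellular parasites grown in NIH/3T3 mouse fibroblasts as host cells; luminescent beta-galactosidase reporter signal from transgenic T. cruzi replicating inside host cells; inhibitors lower the luminescence signal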
[16] = cytotoxicity toward NIH3T3 fibroblasts, dose response, counter-screen, cell-based, ATP luminescence, mouse fibroblasts (AID 2010); format: functional;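 also: cells exposed to compound for about 90 hours before reading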
[17] = THP-1 cell cytotoxicity, dose response, cytotoxicity control for non-replicating M. tuberculosis project (AID 489025); format: functional
[18] = Vero E6 cell cytotoxicity, dose response, cytotoxicity control for non-replicating M. tuberculosis project, secondary assay (AID 492998); format: functional, VeroE6; details: Vero C1008
[19] = cells
[20] = biological target: Voltage-dependent T-type calcium channel subunit alpha-1H (Homo sapiens, UniProt O95180); format: functional;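 also: channel activity triggered by adding a high calcium stimulation buffer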
[21] = P. falciparum late gametocyte killing, dose response, luminescence (AID 1117278); format: functional, cell-based;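 also: gametocytes exposed to compound for 24 hours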
[22] = Jurkat T cell cytotoxicity, dose response, cytotoxicity control for P. falciparum gametocyte viability project, luminescence (AID 1117277); format: functional, cell-based;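 also: potency reflects loss of cellular ATP meaning fewer viable cells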
[23] = biological target: T4, Microphthalmia-associated transcription factor (Homo sapiens, UniProt O75030); assay: TRPM1 promoter luciferase signal decrease, dose response, MITF inhibitor project, cell-based, SK-MEL-5, cherry-picked, set 3 (AID 493073); format: functional
T4 sequence (O75030 whole entry): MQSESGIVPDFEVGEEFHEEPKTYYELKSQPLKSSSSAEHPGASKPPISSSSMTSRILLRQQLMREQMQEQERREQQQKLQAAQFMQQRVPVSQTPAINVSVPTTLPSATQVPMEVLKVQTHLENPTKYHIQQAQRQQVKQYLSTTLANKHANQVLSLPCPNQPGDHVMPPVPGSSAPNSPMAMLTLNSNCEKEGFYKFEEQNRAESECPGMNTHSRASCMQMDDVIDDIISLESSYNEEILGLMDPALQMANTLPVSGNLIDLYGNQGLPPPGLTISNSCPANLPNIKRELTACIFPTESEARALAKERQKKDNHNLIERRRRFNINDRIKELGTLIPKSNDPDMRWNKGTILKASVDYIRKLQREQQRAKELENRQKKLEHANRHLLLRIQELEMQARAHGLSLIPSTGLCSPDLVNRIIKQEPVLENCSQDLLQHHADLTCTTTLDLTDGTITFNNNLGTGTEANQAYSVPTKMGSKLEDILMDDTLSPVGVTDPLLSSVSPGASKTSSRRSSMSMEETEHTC

[24] = biological target: T5, Estrogen receptor beta (Homo sapiens, UniProt Q92731);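 also: recombinant ER-beta bound to coactivator SRC1 peptide in presence of estradiol agonist; inhibitors block coactivator peptide binding and lower the FRET signal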
T5 sequence (Q92731 whole entry): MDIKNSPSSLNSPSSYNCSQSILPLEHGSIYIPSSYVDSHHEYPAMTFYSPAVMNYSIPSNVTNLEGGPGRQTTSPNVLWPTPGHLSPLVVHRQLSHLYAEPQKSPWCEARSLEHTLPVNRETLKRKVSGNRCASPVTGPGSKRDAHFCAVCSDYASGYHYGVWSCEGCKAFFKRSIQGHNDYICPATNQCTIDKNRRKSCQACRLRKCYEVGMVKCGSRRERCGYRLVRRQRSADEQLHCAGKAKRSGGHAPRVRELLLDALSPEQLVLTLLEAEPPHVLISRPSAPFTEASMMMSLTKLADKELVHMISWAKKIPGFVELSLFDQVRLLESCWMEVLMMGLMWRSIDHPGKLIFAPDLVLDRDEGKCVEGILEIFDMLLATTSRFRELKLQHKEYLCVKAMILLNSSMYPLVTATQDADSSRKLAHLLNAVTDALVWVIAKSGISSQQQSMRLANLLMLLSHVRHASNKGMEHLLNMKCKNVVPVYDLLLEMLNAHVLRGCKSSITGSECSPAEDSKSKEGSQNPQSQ

[25] = biological target: T5, Estrogen receptor beta; assay: ERβ–SRC-3 coactivator interaction inhibitors, confirmation, orthogonal assay, biochemical, ELISA, streptavidin-HRP readout (AID 1060)
[26] = biological target: T6, Bcl-2-like protein 10 (Homo sapiens, UniProt Q9HD36); assay: displacers of TR3 peptide from Bcl-B, primary screen, selectivity assay for Bfl-1 inhibitor project, biochemical, fluorescence polarization, FITC-TR3 peptide (AID 748);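 also: fluorescence polarization from a fluorescein-labelled TR3 peptide binding purified Bcl-B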
T6 sequence (Q9HD36 whole entry): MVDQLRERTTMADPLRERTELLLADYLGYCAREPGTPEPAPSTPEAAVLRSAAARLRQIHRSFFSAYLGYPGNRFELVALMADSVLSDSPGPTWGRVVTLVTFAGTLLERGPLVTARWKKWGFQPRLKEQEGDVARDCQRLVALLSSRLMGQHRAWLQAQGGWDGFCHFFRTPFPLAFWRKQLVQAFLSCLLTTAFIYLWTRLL

[27] = biological target: T7, Carboxy-terminal domain RNA polymerase II polypeptide A small phosphatase 1 (Homo sapiens, UniProt Q9GZU7); assay: inhibitors of CTDSP1, concentration-response testing, biochemical assay, absorbance-based, actives from ultra-high-throughput screening (AID 540297); format: functional
T7 sequence (Q9GZU7 whole entry): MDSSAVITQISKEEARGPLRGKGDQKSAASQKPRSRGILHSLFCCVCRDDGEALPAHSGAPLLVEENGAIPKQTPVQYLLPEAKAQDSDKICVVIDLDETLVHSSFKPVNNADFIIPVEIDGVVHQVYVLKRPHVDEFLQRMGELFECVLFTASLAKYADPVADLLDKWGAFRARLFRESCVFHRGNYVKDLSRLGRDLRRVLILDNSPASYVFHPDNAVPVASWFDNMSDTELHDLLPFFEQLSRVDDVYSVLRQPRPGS

[28] = biological target: T8, SUMO-activating enzyme (Homo sapiens, UniProt Q9UBT2); assay: SUMOylation inhibitor hit validation, confirmation, SUMOylation inhibitor project, biochemical, AlphaScreen (AID 2018); format: functional
T8 sequence (Q9UBE0 whole entry): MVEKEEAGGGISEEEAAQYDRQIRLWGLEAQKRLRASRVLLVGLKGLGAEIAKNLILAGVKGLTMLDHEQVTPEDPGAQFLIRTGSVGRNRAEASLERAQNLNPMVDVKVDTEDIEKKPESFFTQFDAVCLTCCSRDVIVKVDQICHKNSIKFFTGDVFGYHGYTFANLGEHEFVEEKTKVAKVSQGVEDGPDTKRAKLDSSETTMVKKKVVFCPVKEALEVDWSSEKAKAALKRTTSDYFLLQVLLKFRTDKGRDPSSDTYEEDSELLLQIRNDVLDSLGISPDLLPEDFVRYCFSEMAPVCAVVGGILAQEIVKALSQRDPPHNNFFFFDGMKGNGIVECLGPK
T8 sequence (Q9UBT2 whole entry): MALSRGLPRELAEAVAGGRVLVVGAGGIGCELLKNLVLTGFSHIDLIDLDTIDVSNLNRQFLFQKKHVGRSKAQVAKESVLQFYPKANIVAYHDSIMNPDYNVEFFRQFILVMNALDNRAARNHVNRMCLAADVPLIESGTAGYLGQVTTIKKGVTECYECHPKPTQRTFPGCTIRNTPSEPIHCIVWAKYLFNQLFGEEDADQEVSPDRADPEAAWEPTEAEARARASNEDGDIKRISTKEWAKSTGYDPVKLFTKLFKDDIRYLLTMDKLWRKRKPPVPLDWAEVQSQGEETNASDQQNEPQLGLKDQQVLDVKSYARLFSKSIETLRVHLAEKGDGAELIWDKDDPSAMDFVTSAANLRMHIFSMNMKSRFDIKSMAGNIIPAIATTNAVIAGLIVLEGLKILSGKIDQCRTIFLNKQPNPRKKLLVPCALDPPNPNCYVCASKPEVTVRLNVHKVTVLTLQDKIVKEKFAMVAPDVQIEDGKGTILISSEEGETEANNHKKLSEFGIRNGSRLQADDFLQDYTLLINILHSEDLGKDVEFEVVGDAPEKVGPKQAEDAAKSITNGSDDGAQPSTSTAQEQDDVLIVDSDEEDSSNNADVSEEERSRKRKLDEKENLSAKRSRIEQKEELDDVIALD

[29] = biological target: T8, SUMO-activating enzyme; assay: inhibitors of in vitro SUMOylation cascade, primary screen, biochemical, HTRF, uHTS (AID 2006); format: protein-complex assay
[30] = A cytotoxicity screen of small molecule inhibitors of the PhoP region in Salmonella typhi identified in the primary screen. [Related pubchem assays: 1850, 1864, 1985 ]; format: functional

Q: With `N#Cc1c(NCCO)nc(NCc2ccccc2)c2c1CCN(Cc1ccccc1)C2` as the molecule, how does the IC50 [1] read?
A: > 50 µM (not active)

Q: And the IC50 [2]?
A: > 50 µM (not active)

Q: For `O=S1(=O)C=C(Sc2nc3ccccc3s2)c2ccccc21`, which EC50 [3] is on record?
A: 1.23 µM (active)

Q: And the EC50 [4]?
A: 3.93 µM (inconclusive)

Q: And the EC50 [5]?
A: 6.14 µM (inconclusive)

Q: And the IC50 [6]?
A: 0.474 µM (active)

Q: And the EC50 [7]?
A: 1.73 µM (inconclusive)

Q: And the EC50 [8]?
A: 3.3 µM (active)

Q: What about the IC50 [9] of the same molecule?
A: 12.6 µM (not active)

Q: What about the IC50 [10] of the same molecule?
A: 60.3 µM (inactive)

Q: And the EC50 [11]?
A: 0.13 µM (active)

Q: And the AC50 [12]?
A: 3.36 µM (active)

Q: For `Cc1ccc(-c2onc3ccc(C=O)cc23)cc1`, which IC50 [13] is on record?
A: 30.1 µM (not active)

Q: For `CCOC(=O)CNCCC(=O)c1ccc(Br)cc1`, which IC50 [1] is on record?
A: > 50 µM (not active)

Q: And the IC50 [2]?
A: > 50 µM (not active)

Q: What about the IC50 [14] of the same molecule?
A: 20.4 µM (active)

Q: With `CCN1CCN(c2ccc(S(=O)(=O)N3CCCCC3)cc2NC(=O)c2ccc([N+](=O)[O-])s2)CC1` as the molecule, how does the EC50 [15] read?
A: < 0.1 µM (active)

Q: What about the EC50 [16] of the same molecule?
A: 6.56 µM (active)

Q: And the CC50 [17]?
A: 10.5 µM (active)

Q: What about the CC50 [18] of the same molecule?
A: 8.95 µM (active)

Q: And the IC50 [14]?
A: 7.51 µM (active)

Q: What about the AC50 [12] of the same molecule?
A: 3.46 µM (active)

Q: And the EC50 [19]?
A: 0.052 µM (active)

Q: Which results are given for `CCCn1nnc(NC(=O)c2ccc(-c3cccc(Cl)c3)o2)n1`?
A: EC50 [20]: 6.81 µM (active); IC50 [21]: > 109 µM (inactive); IC50 [22]: > 83.4 µM (inactive)

Q: What does the source list for `CC(=O)Cn1ncc(Br)c(Br)c1=O`?
A: EC50 [4]: 12.4 µM (active); EC50 [15]: 1.24 µM (active); EC50 [16]: 0.976 µM (active); IC50 [6]: 4.22 µM (active); IC50 [9]: 16.6 µM (not active); AC50 [23]: 15.8 µM (active)

Q: Which results are given for `O=C(Nc1cccc2cccc(NC(=O)c3ccco3)c12)c1ccco1`?
A: IC50 [24]: 15.5 µM (active); IC50 [25]: > 50 µM (not active)

Q: Which EC50 [15] does the source give for `O=C(CCC1CCCN(Cc2ccc(O)c(Cl)c2)C1)NCc1ccccc1F` (centres undefined) here?
A: < 0.1 µM (active)

Q: And the EC50 [16]?
A: > 60 µM (not active)

Q: And the EC50 [19]?
A: 0.077 µM (active)

Q: Which results are given for `COc1ccccc1-c1nnc2sc(-c3cnccn3)nn12`?
A: IC50 [26]: 28.5 µM (active); IC50 [24]: 4.15 µM (active); IC50 [27]: 9.06 µM (active)

Q: Which results are given for `Cn1c2ccccc2c(=O)n2c(=O)c3ccccc3cc12`?
A: IC50 [28]: 3.28 µM (active); IC50 [29]: 10.9 µM (active); IC50 [13]: > 69.5 µM (not active)

Q: For `CCOc1ccc(NC(=O)CN(C)C(=O)c2ccccc2CCc2ccccc2)cc1OCC`, which EC50 [30] is on record?
A: > 50 µM (active)

Q: Which IC50 [25] does the source give for `CN1CCN(CC(=O)Nc2sc3c(c2C#N)CCC3)CC1` here?
A: > 50 µM (not active)

Q: Which IC50 [21] does the source give for `Cc1cc(C(=O)NCCC2=CCCCC2)no1` here?
A: > 109 µM (inactive)

Q: What about the IC50 [22] of the same molecule?
A: > 83.3 µM (inactive)

Q: With `O=C(N/N=C/c1ccc2ccccc2c1)c1ccc(COc2ccc3c(c2)CCC3)o1` as the molecule, how does the IC50 [13] read?
A: > 69.5 µM (not active)

Q: And the IC50 [27]?
A: 3.24 µM (active)
